# Reference: patent publication US4663326A, “Pyrazolo[4,3-d]pyrimidine-5,7-(4H,6H)dione or -5-thione-7-one analogs” (Warner-Lambert Company, priority 1985, dated 1987)
# How the values were obtained:
# histamine = test: Bronchodilator test (BCA), histamine spasmogen, guinea pigs; assay type: in vivo, Hartley Guinea Pigs; design: key: Active; conditions: 50 mg/kg
# Description: The compounds of this invention may be determined to have antiallergy activity by a standard laboratory means employing the bronchodilator test (BCA) readily accepted as a standard for antiallergy activity, which is described in Siegmund, H. O., et al (J. Pharmacol. and Exptl., 90:254, 1949 and Herxheimer, H., J. Physiol., 117: 252-255, 1952). Thus, antiallergy activity was found for compounds of this invention by this BCA test using Hartley Guinea Pigs by the procedures as described below.
# Naive (BCA) pigs are exposed to spasmogen for ten minutes by means of a De Vilbiss number 40 nebulizer positioned at the back of a closed, six unit plexiglas chamger (19×12.5×9"). Air flow is adjusted to give a pressure of 10 lbs/in; six animals per treatment are averaged, and the mean value for compound treated animals is compared to that for animals treated with vehicle. […]
# The spasmogen may be acetylcholine chloride (0.3%), histamine (0.1%), methacholine chloride (Mecholyl) (0.1%) or serotonin creatinine sulfate. Each nebulizer dispenses 0.2 cc/minute.
# [1] = target: T1, adenosine receptors (designated A1) (Rattus norvegicus, UniProt P25099); test: Adenosine receptor binding - A1 receptor affinity (RBA1), [3H]-CHA displacement, rat whole brain minus cerebellum and brainstem membranes; design: species or system rat (male Long Evans); conditions: 1.0 nM [3H]-CHA, 25° C., pH 7.7; repeat tests (Test 1-4) one line each; read-out: RBA-1 (IC50, adenosine A1 affinity)
# T1 construct: Whole brain minus cerebellum and brainstem from male Long Evans rats (150-200 g); from tissue; host or cells: whole brain minus cerebellum and brainstem, male Long Evans rats, membranes
# T1 sequence (P25099 1-326): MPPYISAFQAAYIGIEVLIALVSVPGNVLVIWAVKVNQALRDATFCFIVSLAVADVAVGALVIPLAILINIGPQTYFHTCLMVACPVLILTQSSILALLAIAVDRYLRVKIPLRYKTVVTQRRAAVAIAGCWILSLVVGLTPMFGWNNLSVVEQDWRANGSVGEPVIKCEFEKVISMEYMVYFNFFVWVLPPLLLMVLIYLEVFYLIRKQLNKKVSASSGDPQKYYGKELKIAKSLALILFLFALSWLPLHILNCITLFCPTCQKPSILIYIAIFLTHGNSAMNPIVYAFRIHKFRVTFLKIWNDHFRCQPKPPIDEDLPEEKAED
# Method: ADENOSINE RECEPTOR BINDING-A1 RECEPTOR AFFINITY (RBA1)
# Whole brain minus cerebellum and brainstem from male Long Evans rats (150-200 g) was homogenized in 30 volumes of ice-cold 0.05M Tris-HCl buffer pH 7.7 using a Brinkman Polytron PT-10, (setting number 6 for 20 seconds) and centrifuged for ten minutes at 20,000×g (Sorvall RC-2), 4° C. The supernatant was discarded, and the pellet was resuspended and centrifuged as before. The pellet was resuspended in 20 ml Tris-HCl buffer containing two International Units/ml of adenosine deaminase (Sigma type III from calf intestinal mucosa), incubated at 37° C. for 30 minutes, then subsequently at 0° C. for ten minutes. The homogenate was again centrifuged, and the final pellet was resuspended in ice-cold 0.05M Tris-HCl buffer pH 7.7 to a concentration of 20 mg/ml original wet tissue weight and used immediately.
# Tissue homogenate (10 mg/ml) was incubated in 0.05M Tris-HCl buffer pH 7.7 containing 1.0 nM [^3 H]-N^6 -cyclohexyladenosine (^3 H]-CHA) with or without test agents in triplicate for one hour at 25° C. Incubation volume was 2 ml. Unbound [^3 H]-CHA was separated by rapid filtration under reduced pressure through Whatman glass fiber (GF/B) filters. The filters were rinsed three times with 5 ml of ice cold 0.05M Tris-HCl buffer pH 7.7. The radio-labeled ligand retained on the filter was measured by liquid scintillation spectrophotometry after shaking the filters for one hour or longer on a mechanical shaker in 10 ml of Beckman Ready-Solv HP scintillation cocktail.
# Nonspecific binding was defined as the binding which occurred in the presence of 1 mM theophylline. The concentration of test agent which inhibited 50% of the specific binding (IC50) was determined by nonlinear computer curve fit. The Scatchard plot was calculated by linear regression of the line obtained by plotting the amount of radioligand bound ([…]) versus [bound radioligand/free radioligand].Since the amount of radioligand bound was a small fraction of the total amount added, free radioligand was defined as the concentration (nM) of radioligand added to the incubation mixture. The Hill coefficient was calculated by linear regression of the line obtained by plotting the log of the bound radioligand vs the log of the [bound radioligand/(Bmax -bound radioligand)]. The maximal number of binding sites (Bmax) was calculated from the Scatchard plot.
IC50 [1],Compound,"BCA Results, Ratings (histamine)"
11 µM,"Cc1nn(C)c2c(=O)[nH]c(=O)[nH]c12 [Example 1, 1,3-Dimethylpyrazolo[4,3-d]pyrimidine-5,7-(4H, 6H)dione]",A
19.3 µM,"CCn1nc(C)c2[nH]c(=S)[nH]c(=O)c21 [Example 2, 1-Ethyl-1,4,5,6-tetrahydro-3-methyl-pyrazolo[4,3-d]pyrimidine-5-thione-7-on]",
